From patent US4929751A, “Vinyl tricarbonyl compounds and methods of making the same” (Yale University, priority 1987, dated 1990)
Like-named read-outs stand apart in the source and are kept apart here.

Key:
Assay type in all cases: cell-based
tumor cells = test: growth inhibition of tumor cells, whole panel (mean graph)
Source text: (§1) t-Butyl 2,3-dioxo-pent-4-enoate hydrate (A) was contacted with various cell lines as indicated on Table 1 hereinbelow in the column designated as "CELL" or "TUMOR". […]
(§2) Table 1 reports and illustrates the results obtained by testing t-butyl 2,3-dioxo-pent-4-enoate hydrate. The concentration of this compound found to inhibit the growth of each cell line listed under "CELL" by 50% is reported under "LOG(IC50)" as the logarithm of the concentration. The units of concentration are either molarity in which case an "M" is shown in parentheses next to the LOG(IC50) label, or micrograms per ml, in which case a "W" (for weight) is shown in parenthesis. The cell line names are grouped by disease type and the disease type names are listed on the far left.
The graph on the right depicts the data on the left in a format called a "MEAN GRAPH" which is designed to aid in the identification of differential growth inhibition. […] The interest in using this concept of differential growth inhibition as a criterion of activity in the screening system is to encourage the discovery of new types of anticancer agents having greater tissue specificity than cancer chemotherapeutic agents in use today.
The idea for the Mean Graph resulted from trying to detect differential growth inhibition in a bar graph format Experimentation led to a graph centered at the arithmetic mean (ML) of the logarithm of the IC50'a of all the cell line responses measured for a compound. The Mean Graph is constructed around a vertical reference (indicating ML) by projecting bars to the right or to the left. […] The lengths of the bars are proportional to the differences between the logarithms of the specific cell line IC50's and the overall mean value ML. These lengths represent differences in logarithms which are equivalent to the ratios of the specific IC50's to the geometric mean of all the IC50's. Therefore, a useful property of the Mean Graph format is the ability to compare patterns derived from IC50's measured in different units, e.g, micrograms per ml and molarity. The units cancel in the division process.
Differential growth inhibition is depicted as a bar projecting some distance to the right of ML. A bar projecting three log units to the right of ML, for example, would reflect a cellular sensitivity 1000 times greater than ML. While any degree of sensitivity greater than ML might theoretically be considered differential growth inhibition, in practice one must consider the experimental error in the measurement and at what point the degree of differential growth inhibition becomes meaningful in biological terms. The three values listed a the bottom of the graph provide the value of ML as "AVE LOG(IC50)", the greatest difference from ML as "DELTA" and the difference between the least sensitive cell line and the most sensitive cell line as the "RANGE".

OVCAR-4 (ovarian) = test: growth inhibition of tumor cell line; conditions: Homo sapiens, logarithm of the concentration inhibiting growth by 50%
Source text: as §1, §2

LOVO (colon) = test: growth inhibition of tumor cell line; conditions: Homo sapiens
Source text: as §1, §2

[1] = tested on: H524 (small cell lung cancer); test: growth inhibition of tumor cell line; conditions: Homo sapiens, NCI-H524
Source text: as §1, §2

[2] = tested on: SNB-44 (central nervous system); test: growth inhibition of tumor cell line
Source text: as §1, §2

MCF-7 (breast) = test: growth inhibition of tumor cell line; conditions: Homo sapiens
Source text: as §1, §2

[3] = tested on: DMS114 (small cell lung cancer); test: growth inhibition of tumor cell line; conditions: Homo sapiens
Source text: as §1, §2

MALME-3M (melanoma) = test: growth inhibition of tumor cell line; conditions: Homo sapiens
Source text: as §1, §2

[4] = tested on: SK-MES-1 (nonsmall cell lung cancer); test: growth inhibition of tumor cell line; conditions: Homo sapiens, SK-MES1, logarithm of the concentration inhibiting growth by 50%
Source text: as §1, §2

IC50 (tumor cells; mean over the cell lines, read-out: IC-50 MEAN, NSC MEAN): 79.1 µM
IC50 (tumor cells; total cell lines used = 42, read-out: MEAN OF ALL LOGIC50'S (converted)): 100 µM
IC50 (OVCAR-4 (ovarian)): 251 µM
IC90 (LOVO (colon); LoVo): 262 µM
IC50 (LOVO (colon); LoVo, read-out: IC-50 MEAN): 96.6 µM
IC50 (LOVO (colon); LOVO, logarithm of the concentration inhibiting growth by 50%, read-out: LOG(IC50) (converted)): 100 µM
IC90 [1]: 189 µM
IC50 ([1]; H524, logarithm of the concentration inhibiting growth by 50%, read-out: LOG(IC50) (converted)): 39.8 µM
IC50 ([1]; read-out: IC-50 MEAN): 40.8 µM
IC90 ([2]; SNB44): 235 µM
IC50 ([2]; SNB44, logarithm of the concentration inhibiting growth by 50%, read-out: LOG(IC50) (converted)): 100 µM
IC50 ([2]; SNB44, read-out: IC-50 MEAN): 94 µM
IC90 (MCF-7 (breast); MCF7): 232 µM
IC50 (MCF-7 (breast); MCF7, logarithm of the concentration inhibiting growth by 50%, read-out: LOG(IC50) (converted)): 100 µM
IC50 (MCF-7 (breast); MCF7, read-out: IC-50 MEAN): 98.1 µM
IC90 ([3]; DMS-114): 264 µM
IC50 ([3]; DMS-114, logarithm of the concentration inhibiting growth by 50%, read-out: LOG(IC50) (converted)): 126 µM
IC50 ([3]; DMS-114, read-out: IC-50 MEAN): 141 µM
IC90 (MALME-3M (melanoma)): 180 µM
IC50 (MALME-3M (melanoma); MALME-3, logarithm of the concentration inhibiting growth by 50%, read-out: LOG(IC50) (converted)): 100 µM
IC50 (MALME-3M (melanoma); read-out: IC-50 MEAN): 78.8 µM
IC50 [4]: > 25.1 µM
Structure (SMILES): C=CC(=O)C(O)(O)C(=O)OC(C)(C)C [t-butyl 2,3-dioxo-pent-4-enoate hydrate]
IC50 (tumor cells; arithmetic mean of the logarithm of the IC50 of all cell lines, read-out: AV TC50 (AVE LOG(IC50), ML) (converted)): 74.1 µM
RANGE (tumor cells; difference between least and most sensitive cell line, log units): 2.3
DELTA (tumor cells; greatest difference from ML, log units): 1.8
